Test results published in patent US9487489B2, “Halogen-substituted pyrazole derivatives as pest-control agents” (BAYER CROPSCIENCE AKTIENGESELLSCHAFT, priority 2013, dated 2016).

How the values were obtained:
[1] = tested on: adult dog ticks (Rhipicephalus sanguineus); assay: Rhipicephalus sanguineus in vitro contact test with adult brown dog ticks (T2); conditions: after 48 h
Protocol: T2. Rhipicephalus sanguineus-in vitro Contact Tests with Adult Brown Dog Ticks
For the coating of the test tubes, initially 9 mg of active compound are dissolved in 1 ml of acetone p.a. and then diluted with acetone p.a. to the desired concentration. By turning and rocking on an orbital shaker (2 h of rocking rotation at 30 rpm), 250 μl of the solution are distributed homogeneously on the internal walls and the floor of a 25 ml test tube. At 900 ppm active compound solution and 44.7 cm^2 internal surface, an area dose of 5 μg/cm^2 is achieved for homogeneous distribution.
After evaporation of the solvent, the tubes are populated with 5-10 adult dog ticks (Rhipicephalus sanguineus), sealed with a perforated plastic lid and incubated in a horizontal position in the dark at room temperature and ambient humidity. After 48 h, the efficacy is determined. To this end, the ticks are knocked to the floor of the tube and incubated on a hotplate at 45-50° C. for at most 5 min Ticks which remain motionless on the floor or move in an uncoordinated manner such that they are not able to deliberately avoid the heat by climbing upwards are considered to be dead or moribund.
An efficacy of 100% means that all ticks were dead or moribund. 0% efficacy means that none of the ticks had been damaged.

[2] = tested on: adult houseflies (Musca domestica); assay: Musca domestica test (MUSCDO); format: in vivo; conditions: application rate 100 ppm; after 2 days
Protocol: F. Musca domestica Test (MUSCDO)
Solvent: dimethyl sulphoxide
To produce a suitable preparation of active compound, 10 mg of active compound are mixed with 0.5 ml of dimethyl sulphoxide, and the concentrate is diluted with water to the desired concentration.
Vessels containing a sponge treated with sugar solution and the active compound preparation of the desired concentration are populated with 10 adult houseflies (Musca domestica).
After 2 days, the kill in % is determined. 100% means that all of the flies have been killed; 0% means that none of the flies have been killed.

[3] = tested on: caterpillars of the armyworm (Spodoptera frugiperda); assay: Spodoptera frugiperda spray test (SPODFR); format: in vivo; conditions: maize leaf discs, after 7 days
Outline: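 Maize leaf discs sprayed with compound in acetone/DMF with alkylaryl polyglycol ether emulsifier (1000 ppm) in water, dried, then infested with armyworm caterpillars. Mortality (%) scored after 7 days; 100% = all caterpillars killed, 0% = none killed.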

[4] = tested on: L1 larvae of the Australian sheep blowfly (Lucilia cuprina); assay: Lucilia cuprina test (LUCICU); format: in vivo; conditions: application rate 100 ppm; after 2 days
Outline: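 About 20 L1 larvae placed in a vessel with minced horsemeat plus compound (DMSO concentrate diluted with water to the desired concentration). Kill in % scored after 2 days, 100% meaning all larvae dead.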

[5] = tested on: adult cat fleas (Ctenocephalides felis); assay: Ctenocephalides felis oral test (CTECFE); format: in vivo; conditions: application rate 100 ppm in citrated cattle blood; after 2 days
Outline: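 About 20 unfed adult cat fleas fed through parafilm membrane on citrated cattle blood containing compound (DMSO stock diluted in blood to test concentration). Kill % scored after 2 days (100% = all fleas dead).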

[6] = tested on: larvae of the mustard beetle (Phaedon cochleariae); assay: Phaedon cochleariae spray test (PHAECO); format: in vivo; conditions: Chinese cabbage leaf discs, after 7 days
Outline: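 Compound dissolved in acetone/dimethylformamide with alkylaryl polyglycol ether emulsifier, made up in water containing 1000 ppm emulsifier, then diluted to test concentrations and sprayed against mustard beetle larvae. Efficacy (% larvae killed) scored after 7 days.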

[7] = tested on: engorged adult female cattle ticks (Boophilus microplus); assay: Boophilus microplus injection test (BOOPMI Inj); format: in vivo; conditions: application rate 20 μg/animal; injection into abdomen; assessed after 7 days
Outline: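 DMSO solution of compound (1 μl) injected into the abdomen of 5 engorged adult female ticks, which are then held in a climate-controlled room. After 7 days, efficacy is scored from laying of fertile eggs, with unclear eggs kept until larval hatch (~42 days); 100% means no fertile eggs, 0% all fertile.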

[8] = logP determination by HPLC on a reversed-phase column (C18), EEC Directive 79/831 Annex V.A8; format: physicochemical; conditions: HPLC on reversed-phase column (C18), acetonitrile/water with formic acid, EEC Directive 79/831 Annex V.A8
Outline: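 Retention on a C18 reversed-phase column (Zorbax Eclipse Plus, 1.8 micron) was used, eluting with acetonitrile/water, each containing formic acid. The gradient ran from 10% to 95% acetonitrile over 4.25 min, then held 1.25 min, at 55° C and 2.0 ml/min, with MS detection.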

[9] = tested on: greenhouse red spider mite (Tetranychus urticae); assay: Tetranychus urticae spray test, OP-resistant (TETRUR); format: in vivo; conditions: bean leaf discs, after 6 days
Outline: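 Bean leaf discs carrying all stages of OP-resistant Tetranychus urticae were sprayed with compound formulated in acetone/dimethylformamide and diluted in water with 1000 ppm alkylaryl polyglycol ether emulsifier. Mortality (% efficacy, 100% = all mites killed) scored after 6 days.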

Cn1nc(C(F)(F)C(F)(F)F)c(C(F)(F)F)c1-n1cc(-c2ccc(Cl)c(C(=O)Nc3ccc(Cl)cc3)c2)cn1 [Ic-25]
100%: efficacy (dead or moribund ticks) ([1]; application rate 1 μg/cm^2) | efficacy (dead or moribund ticks) ([1]; application rate 5 μg/cm^2) | efficacy in % ([3]; application rate 100 g/ha) | efficacy (kill in %) [4] | efficacy in % ([6]; application rate 100 g/ha) | efficacy (laying of fertile eggs) [7]
95%: efficacy (kill in %) [5]
4.93: logP [8]
90%: efficacy (kill in %) [2]

Cn1nc(C(F)(F)C(F)(F)F)c(C(F)(F)F)c1-n1cc(-c2ccc(Cl)c(C(=O)NC3CC3)c2F)cn1 [Ic-106]
83%: efficacy in % ([3]; application rate 500 g/ha)
100%: efficacy (dead or moribund ticks) ([1]; application rate 5 μg/cm^2) | efficacy (kill in %) [2] | efficacy (kill in %) [4] | efficacy (kill in %) [5] | efficacy in % ([6]; application rate 500 g/ha) | efficacy (laying of fertile eggs) [7]

Cn1nc(C(F)(F)C(F)(F)F)c(C(F)(F)F)c1-n1cc(-c2cc(C(=O)NC3CC3)ccc2Cl)cn1 [Ic-46]
100%: efficacy (dead or moribund ticks) ([1]; application rate 1 μg/cm^2) | efficacy (kill in %) [2] | efficacy in % ([3]; application rate 500 g/ha) | efficacy (kill in %) [4] | efficacy (kill in %) [5] | efficacy in % ([6]; application rate 500 g/ha) | efficacy (laying of fertile eggs) [7]

CC(CC1CC1)NC(=O)c1cc(-c2cnn(-c3c(C(F)(F)F)c(C(F)(F)C(F)(F)F)nn3C)c2)ccc1Cl (centres unmarked) [Ic-161]
100%: efficacy (dead or moribund ticks) ([1]; application rate 5 μg/cm^2) | efficacy in % ([3]; application rate 500 g/ha) | efficacy (kill in %) [4] | efficacy (kill in %) [5] | efficacy in % ([6]; application rate 500 g/ha) | efficacy (laying of fertile eggs) [7] | efficacy in % ([9]; application rate 500 g/ha)
80%: efficacy (dead or moribund ticks) ([1]; application rate 1 μg/cm^2) | efficacy (kill in %) [2]

Cn1nc(C(F)(F)C(F)(F)F)c(C(F)(F)F)c1-n1cc(-c2ccc(F)c(C(=O)NC3CC3)c2F)cn1 [Ic-174]
100%: efficacy (dead or moribund ticks) ([1]; application rate 1 μg/cm^2) | efficacy (dead or moribund ticks) ([1]; application rate 5 μg/cm^2) | efficacy (kill in %) [2] | efficacy in % ([3]; application rate 500 g/ha) | efficacy (kill in %) [4] | efficacy (kill in %) [5] | efficacy in % ([6]; application rate 500 g/ha) | efficacy (laying of fertile eggs) [7]

Cn1nc(C(F)(F)C(F)(F)F)c(C(F)(F)F)c1-n1cc(-c2cc(C(=O)NC3CC3)cc(C(F)(F)F)c2)cn1 [Ic-59]
100%: efficacy (dead or moribund ticks) ([1]; application rate 1 μg/cm^2) | efficacy (kill in %) [2] | efficacy in % ([3]; application rate 500 g/ha) | efficacy (kill in %) [4] | efficacy (kill in %) [5] | efficacy in % ([6]; application rate 500 g/ha) | efficacy (laying of fertile eggs) [7]
90%: efficacy in % ([9]; application rate 100 g/ha)

Cn1nc(C(F)(F)C(F)(F)F)c(C(F)(F)F)c1-n1cc(-c2cc(Cl)cc(C(=O)NC3(C#N)CC3)c2)cn1 [Ic-43]
100%: efficacy (dead or moribund ticks) ([1]; application rate 1 μg/cm^2) | efficacy (kill in %) [2] | efficacy in % ([3]; application rate 500 g/ha) | efficacy (kill in %) [4] | efficacy (kill in %) [5] | efficacy in % ([6]; application rate 500 g/ha) | efficacy (laying of fertile eggs) [7]

Cn1nc(C(F)(F)C(F)(F)F)c(C(F)(F)F)c1-n1cc(-c2cc(C(=O)NC3CC3)cc(F)c2F)cn1 [Ic-61]
80%: efficacy (dead or moribund ticks) ([1]; application rate 5 μg/cm^2) | efficacy (kill in %) [2]
100%: efficacy in % ([3]; application rate 100 g/ha) | efficacy (kill in %) [4] | efficacy (kill in %) [5] | efficacy in % ([6]; application rate 500 g/ha) | efficacy (laying of fertile eggs) [7]
